# Experimental data reported in publication PMC2932742, “Identifying Regulators for EAG1 Channels with a Novel Electrophysiology and Tryptophan Fluorescence Based Screen” (PLoS ONE, 2010).
# Biological target: T1, EAG1 (mEAG1) (Mus musculus, UniProt Q60603)
# T1 construct: gene Kcnh1
# T1 sequence (Q60603 505-702): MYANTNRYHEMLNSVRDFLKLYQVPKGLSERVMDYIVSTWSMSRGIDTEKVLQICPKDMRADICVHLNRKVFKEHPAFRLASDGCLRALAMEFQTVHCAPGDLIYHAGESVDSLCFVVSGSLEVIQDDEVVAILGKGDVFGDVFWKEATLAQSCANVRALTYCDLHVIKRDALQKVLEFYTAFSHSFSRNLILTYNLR
# Test: tryptophan fluorescence titration of purified C-terminal region; gating effect also seen in inside-out patches
# Assay type: binding
structure (smiles),measurement,value
O=c1c(O)c(-c2cc(O)c(O)c(O)c2)oc2cc(O)cc(O)c12 [myricetin],Kd,> 100 µM
